Paper PMC9917560, “Design, Synthesis and Antimicrobial Evaluation of New N-(1-Hydroxy-1,3-dihydrobenzo[c][1,2]oxaborol-6-yl)(hetero)aryl-2-carboxamides as Potential Inhibitors of Mycobacterial Leucyl-tRNA Synthetase” (International Journal of Molecular Sciences, 2023)
Values after ≈ are worked out from the molar mass of the structure shown. Like-named read-outs stand apart in the source and are kept apart here.

How the values were obtained:
[1] = tested on: Mycobacterium tuberculosis H37Ra ITM-M006710 (ATCC 9431); test: Antimycobacterial microdilution (resazurin) vs Mtb H37Ra; format: cell-based; details: Middlebrook 7H9, resazurin, recalculated from µg/mL, read-out: MIC Mtb H37Ra
[2] = tested on: Mycobacterium tuberculosis H37Rv CNCTC My 331/88 (ATCC 27294); test: Microplate Alamar Blue assay vs Mtb H37Rv; format: cell-based; details: Middlebrook 7H9 pH 6.6, recalculated from µg/mL, read-out: MIC Mtb H37Rv
[3] = tested on: Mycobacterium kansasii DSM 44,162 (ATCC 12478); test: Antimycobacterial microdilution (resazurin) vs M. kansasii; format: cell-based; details: read-out: MIC M. kansasii
[4] = tested on: Mycobacterium avium DSM 44,156 (ATCC 25291); test: Antimycobacterial microdilution (resazurin) vs M. avium; format: cell-based; details: Mycobacterium avium, Middlebrook 7H9, resazurin; read-out: MIC M. avium
[5] = tested on: Mycolicibacterium aurum DSM 43,999 (ATCC 23366); test: Antimycobacterial microdilution (resazurin) vs M. aurum; format: cell-based; details: Middlebrook 7H9, resazurin, read-out: MIC M. aurum
[6] = tested on: Mycolicibacterium smegmatis DSM 43,465 (ATCC 607); test: Antimycobacterial microdilution (resazurin) vs M. smegmatis; format: cell-based; details: Middlebrook 7H9, resazurin, read-out: MIC M. smeg.
[7] = tested on: Staphylococcus aureus subsp. aureus CCM 4223 (ATCC 29213); test: Antibacterial microdilution broth (EUCAST); format: cell-based; details: read-out: MIC Staphylococcus aureus subsp. aureus
[8] = tested on: methicillin-resistant Staphylococcus aureus subsp. aureus (MRSA) CCM 4750 (ATCC 43300); test: microbe, parasite or virus in culture; format: cell-based; details: read-out: MIC Methicillin-resistant Staphylococcus aureus subsp. aureus
[9] = tested on: Staphylococcus epidermidis CCM 4418 (ATCC 12228); test: Antibacterial microdilution broth (EUCAST); format: cell-based; details: read-out: MIC Staphylococcus epidermidis
[10] = tested on: Enterococcus faecalis CCM 4224 (ATCC 29212); test: Antibacterial microdilution broth (EUCAST); format: cell-based; details: read-out: MIC Enterococcus faecalis
[11] = tested on: Escherichia coli CCM 3954 (ATCC 25922); test: Antibacterial microdilution broth (EUCAST); format: cell-based; details: Escherichia coli, read-out: MIC Escherichia coli
[12] = tested on: Klebsiella pneumoniae CCM 4415 (ATCC 10031); test: Antibacterial microdilution broth (EUCAST); format: cell-based; details: Klebsiella pneumoniae, read-out: MIC Klebsiella pneumoniae
[13] = tested on: Acinetobacter baumannii DSM 30007 (ATCC 19606); test: Antibacterial microdilution broth (EUCAST); format: cell-based; details: read-out: MIC Acinetobacter baumannii
[14] = tested on: Pseudomonas aeruginosa CCM 3955 (ATCC 27853); test: Antibacterial microdilution broth (EUCAST); format: cell-based; details: read-out: MIC Pseudomonas aeruginosa
[15] = tested on: Candida albicans CCM 8320 (ATCC 24433); test: Antifungal microdilution broth (EUCAST); format: cell-based; details: Candida albicans, read-out: MIC Candida albicans
[16] = tested on: Candida krusei CCM 8271 (ATCC 6258); test: Antifungal microdilution broth (EUCAST); format: cell-based; details: Pichia kudriavzevii, read-out: MIC Candida krusei
[17] = tested on: Candida parapsilosis CCM 8260 (ATCC 22019); test: Antifungal microdilution broth (EUCAST); format: cell-based; details: Lodderomyces parapsilosis, read-out: MIC Candida parapsilosis
[18] = tested on: Candida tropicalis CCM 8264 (ATCC 750); test: Antifungal microdilution broth (EUCAST); format: cell-based; details: read-out: MIC Candida tropicalis
[19] = tested on: Aspergillus fumigatus ATCC 204305; test: Antifungal microdilution broth (EUCAST); format: cell-based; details: Aspergillus fumigatus, ATCC204305, read-out: MIC Aspergillus fumigatus
[20] = tested on: Aspergillus flavus CCM 8363; test: Antifungal microdilution broth (EUCAST); format: cell-based; details: Aspergillus flavus, CCM8363, read-out: MIC Aspergillus flavus
[21] = tested on: Lichtheimia corymbifera CCM 8077; test: Antifungal microdilution broth (EUCAST); format: cell-based; details: Lichtheimia corymbifera, CCM8077, read-out: MIC Lichtheimia corymbifera
[22] = tested on: Trichophyton interdigitale CCM 8377 (ATCC 9533); test: Antifungal microdilution broth (EUCAST); format: cell-based; details: Trichophyton interdigitale, read-out: MIC Trichophyton interdigitale
HepG2 cell line = test: Cytotoxicity screening, CellTiter 96 assay; details: Homo sapiens, HepG2, 24 h, read-out: IC50 HepG2
[23] = Mycobacterium tuberculosis, pH 6.6, MABA

O=C(Nc1ccc2c(c1)B(O)OC2)c1cnc(O)cn1 [Compound 9, 5-hydroxy-N-(1-hydroxy-1,3-dihydrobenzo[c][1,2]oxaborol-6-yl)pyrazine-2-carboxamide] gave an MIC [1] of 115 µM (≈ 31.3 µg/mL), an MIC [2, 23] of 184 µM (≈ 50 µg/mL) and an MIC [3] of 115 µM (≈ 31.3 µg/mL). For the same molecule, the MIC [4] was 231 µM (≈ 62.5 µg/mL), the MIC [5] was 231 µM (≈ 62.5 µg/mL) and the MIC [6] was 57.6 µM (≈ 15.6 µg/mL). For the same molecule, the MIC ([7]; 24h incubation) was greater than 500 µM, the MIC ([7]; 48h incubation) was greater than 500 µM and the MIC ([8]; 24 h) was greater than 500 µM. The MIC ([8]; 48 h) was greater than 500 µM, the MIC ([9]; 24h incubation) was greater than 500 µM and the MIC ([9]; 48h incubation) was greater than 500 µM. It also gave an MIC ([10]; 24h incubation) greater than 500 µM, an MIC ([10]; 48h incubation) greater than 500 µM and an MIC ([11]; 24h incubation) greater than 500 µM. For the same molecule, the MIC ([11]; 48h incubation) was greater than 500 µM, the MIC ([12]; 24h incubation) was greater than 500 µM and the MIC ([12]; 48h incubation) was greater than 500 µM. It also gave an MIC ([13]; 24h incubation) greater than 500 µM, an MIC ([13]; 48h incubation) greater than 500 µM and an MIC ([14]; 24h incubation) greater than 500 µM. The MIC ([14]; 48h incubation) was greater than 500 µM, the MIC ([15]; 24h incubation) was greater than 500 µM and the MIC ([15]; 48h incubation) was greater than 500 µM. The MIC ([16]; 24h incubation) was greater than 500 µM, the MIC ([16]; 48h incubation) was greater than 500 µM and the MIC ([17]; 24h incubation) was greater than 500 µM. It also gave an MIC ([17]; 48h incubation) greater than 500 µM, an MIC ([18]; 24h incubation) greater than 500 µM and an MIC ([18]; 48h incubation) greater than 500 µM. For the same molecule, the MIC ([19]; 24h incubation) was greater than 500 µM, the MIC ([19]; 48h incubation) was greater than 500 µM and the MIC ([20]; 24h incubation) was greater than 500 µM. The MIC ([20]; 48h incubation) was greater than 500 µM, the MIC ([21]; 24h incubation) was greater than 500 µM and the MIC ([21]; 48h incubation) was greater than 500 µM. It also gave an MIC ([22]; 72h incubation) greater than 500 µM, an MIC ([22]; 120h incubation) greater than 500 µM and a melting point of 338.3 to 340.1 °C. The IC50 (HepG2 cell line) was greater than 1 mM.

Work on O=C(Nc1ccc2c(c1)B(O)OC2)c1ccc(O)nc1 [Compound 13, 6-hydroxy-N-(1-hydroxy-1,3-dihydrobenzo[c][1,2]oxaborol-6-yl)nicotinamide] yielded an MIC [1] of 463 µM (≈ 125 µg/mL), an MIC ([2]; MABA) greater than 370.30 µM and an MIC [2, 23] greater than 370 µM. The MIC ([3]; Middlebrook 7H9, resazurin) was 116 µM (≈ 31.3 µg/mL), the MIC [4] was 463 µM (≈ 125 µg/mL) and the MIC [5] was 116 µM (≈ 31.3 µg/mL). It also gave an MIC [6] of 116 µM (≈ 31.3 µg/mL), an MIC ([7]; 24h incubation) greater than 500 µM and an MIC ([7]; 48h incubation) greater than 500 µM. For the same molecule, the MIC ([8]; 24 h) was greater than 500 µM, the MIC ([8]; 48 h) was greater than 500 µM and the MIC ([9]; 24h incubation) was greater than 500 µM. It also gave an MIC ([9]; 48h incubation) greater than 500 µM, an MIC ([10]; 24h incubation) greater than 500 µM and an MIC ([10]; 48h incubation) greater than 500 µM. It also gave an MIC ([11]; 24h incubation) greater than 500 µM, an MIC ([11]; 48h incubation) greater than 500 µM and an MIC ([12]; 24h incubation) greater than 500 µM. The MIC ([12]; 48h incubation) was greater than 500 µM, the MIC ([13]; 24h incubation) was greater than 500 µM and the MIC ([13]; 48h incubation) was greater than 500 µM. For the same molecule, the MIC ([14]; 24h incubation) was greater than 500 µM, the MIC ([14]; 48h incubation) was greater than 500 µM and the MIC ([15]; 24h incubation) was greater than 500 µM. The MIC ([15]; 48h incubation) was greater than 500 µM, the MIC ([16]; 24h incubation) was greater than 500 µM and the MIC ([16]; 48h incubation) was greater than 500 µM. The MIC ([17]; 24h incubation) was greater than 500 µM, the MIC ([17]; 48h incubation) was greater than 500 µM and the MIC ([18]; 24h incubation) was greater than 500 µM. It also gave an MIC ([18]; 48h incubation) greater than 500 µM, an MIC ([19]; 24h incubation) greater than 500 µM and an MIC ([19]; 48h incubation) greater than 500 µM. For the same molecule, the MIC ([20]; 24h incubation) was greater than 500 µM, the MIC ([20]; 48h incubation) was greater than 500 µM and the MIC ([21]; 24h incubation) was greater than 500 µM. For the same molecule, the MIC ([21]; 48h incubation) was greater than 500 µM, the MIC ([22]; 72h incubation) was greater than 500 µM and the MIC ([22]; 120h incubation) was greater than 500 µM. The melting point was 304.8 to 306.9 °C and the IC50 (HepG2 cell line) was greater than 1 mM.
